Two molecules from patent publication US10683318B2, “Scalable synthesis of reduced toxicity derivative of amphotericin B” (priority 2014, dated 2020) can be followed below.

SMILES strings stand for the structures. Values after ≈ are worked out from the molar mass of the structure shown. Read-outs that look alike come from different tables or passages of the source.

The subject of series [1] is human red blood cells. In words: Minimum hemolysis concentration (MHC) assay. As to conditions: concentration causing 90% hemolysis of human red blood cells, 37° C., 2 hours.
Experimental: (§3) Whole human blood (sodium heparin) was purchased from Bioreclamation LLC (Westbury, N.Y.) and stored at 4° C. and used within two days of receipt. To a 2.0 mL Eppendorf tube, 1 mL of whole human blood was added and centrifuged at 10,000 g for 2 minutes. The supernatant was removed and the erythrocyte pellet was washed with 1 mL of sterile saline and centrifuged at 10,000 g for 2 minutes. The saline wash was repeated for a total of three washes. The erythrocyte pellet was suspended in 1 mL of RBC buffer (10 mM NaH2PO4, 150 mM NaCl, 1 mM MgCl2, pH 7.4) to form the erythrocyte stock suspension.
(§4) Compounds were prepared as 1.03 min (AmB) or 12.8 min (C2′epiAmB) stock solutions in DMSO and serially diluted to the following concentrations with DMSO: 7689, 5126, 2563, 2050, 1538, 1025, 769, 513, 384, 256, 205, 154, 103, 77, 51, 26 μM. […] Positive and negative controls were prepared by adding 1 μL of DMSO to MilliQ water or RBC buffer, respectively to 0.2 mL PCR tube. To each PCR tube, 0.63 μL of the erythrocyte stock suspension was added and mixed by inversion. The samples were incubated at 37° C. for 2 hours. The samples were mixed by inversion and centrifuged at 10,000 g for 2 minutes. […] Absorbances were read at 540 nm using a Biotek H1 Synergy Hybrid Reader (Winooski, Vt.). […]
(§5) Percent hemolysis was determined according to the following equation: […]
Series [2] concerns primary human renal proximal tubule epithelial cells. In words: WST-8 cell proliferation assay on primary RPTECs. The class given is cell-based. Conditions: concentration causing 90% loss of cell viability of primary human RPTECs, 24 hours. On the technique in general: Formazan colour is commonly taken as a measure of viable cells.
Experimental: Primary human renal proximal tubule epithelial cells (RPTECs) were purchased from ATCC (Manassas, Va.) and immediately cultured upon receipt. Complete growth media was prepared using renal epithelial cell basal medium (ATCC, PCS-400-030), renal epithelial cell growth kit (ATCC, PCS-400-040), and penicillin-streptomycin (10 units/mL and 10 μg/mL). Complete media was stored at 4° C. in the dark and used within 28 days. Primary RPTECs were grown in CO2 incubator at 37° C. with an atmosphere of 95% air/5% CO2.
WST-8 cell proliferation assay kit (10010199) was purchased from Cayman Chemical Company (Ann Arbor, Mich.) and stored at −20° C. and used within 6 months of receipt. WST-8 reagent and electron mediator solution were thawed and mixed to prepare the WST-8 reagent solution. The solution was stored at −20° C. and used within one week.
A suspension of primary RPTECs in complete growth media was brought to a concentration of 1×10^5 cells/mL. A 96-well plate was seeded with 99 μL of the cell suspension and incubated at 37° C. with an atmosphere of 95% air/5% CO2 for 3 hours. Positive and negative controls were prepared by seeding with 100 μL of the cell suspension or 100 μL of the complete media. […] Following incubation, the 96-well plate was mixed in a shaking incubator at 200 rpm for 1 minute and absorbances were read at 450 nm using a Biotek H1 Synergy Hybrid Reader (Winooski, Vt.). […]
A short description of series [3]: Isothermal titration calorimetry with POPC LUVs containing 10% ergosterol. As to conditions: ITC; for Ergosterol binding (net exotherm vs sterol-free LUVs): result in words. The class given is binding. Here is the method:
(§1) In an optimized isothermal titration calorimetry (ITC)-based assay, an aqueous solution of AmB was titrated with a suspension of large unilamellar vesicles (LUVs) comprised of only 1-palmitoyl-2-oleoyl-sn-glycero-3-phosphocholine (POPC), and the net exotherm was recorded. The titration was repeated using POPC LUVs containing 10% ergosterol. […] The titration was repeated using C2′epiAmB. […] The ITC assay was also conducted with cholesterol in place of ergosterol.
(§2) Experiments were performed using a NanoITC isothermal titration calorimeter (TA Instruments, Wilmington, Del.). Solutions of the compounds to be tested were prepared by diluting a 60.0 mM stock solution of the compound in DMSO to 600 μM with K buffer (5.0 mM HEPES/KHEPES, pH=7.4). The final DMSO concentration in the solution was 1% v/v. Large unilamellar vesicles comprised of only 1-palmitoyl-2-oleoyl-sn-glycero-3-phosphocholine (POPC LUVs) were prepared and phosphorus and ergosterol content was quantified as described below. The LUV solutions were diluted with buffer and DMSO to give a final phospholipid concentration of 12.0 mM in a 1% DMSO/K buffer solution. Immediately prior to use, all solutions were incubated at 37° C. for 30 minutes and degassed under vacuum at 37° C. for 10 minutes. The reference cell of the instrument (volume=0.190 mL) was filled with a solution of 1% v/v DMSO/K buffer.
Palmitoyl oleoyl phosphatidylcholine (POPC) was obtained as a 20 mg/mL solution in CHCl3 from Avanti Polar Lipids (Alabaster, Ala.) and was stored at −20° C. under an atmosphere of dry argon and used within 1 month. A 4 mg/mL solution of ergosterol in CHCl3 was prepared monthly and stored at 4° C. under an atmosphere of dry argon. Prior to preparing a lipid film, the solutions were warmed to ambient temperature to prevent condensation from contaminating the solutions. A 13×100 mm test tube was charged with 800 μL POPC and 230 μL of the ergosterol solution. For cholesterol-containing liposomes, a 13×100 mm test tube was charged with 800 μL POPC and 224 μL of the […] solution. […]
A general note: Isothermal titration calorimetry measures the heat released or taken up as one component is titrated into another.

In series [4] the test system is healthy mice. Put plainly: Acute toxicity, single intravenous administration to healthy mice. The class given is in vivo. As to conditions: single i.v. Here is the method:
In a separate experiment, acute toxicity was determined by single intravenous administration of AmB or C2′epiAmB to healthy mice, followed by monitoring for lethality.

The subject of series [5] is C. albicans. Put plainly: Broth microdilution MIC assay, C. albicans. In kind it is cell-based. Conditions: Candida albicans, 37° C., 24 hours, no visible growth. In general terms: Dilution methods test growth across graded concentrations, often in twofold steps.
Experimental: C. albicans was cultured in a similar manner to S. cerevisiae except both liquid and solid cultures were incubated at 37° C.
(§6) The protocol for the broth microdilution assay was adapted from the Clinical and Laboratory Standards Institute document M27-A2. […] 50 mL of YPD media was inoculated and incubated overnight at either 30° C. (S. cerevisiae) or 37° C. (C. albicans) in a shaker incubator. The cell suspension was then diluted with YPD to an OD600 of 0.10 (˜5×10^5 cfu/mL) as measured by a Shimadzu (Kyoto, Japan) PharmaSpec UV-1700 UV/Vis spectrophotometer. The solution was diluted 10-fold with YPD, and 195 μL aliquots of the dilute cell suspension were added to sterile Falcon (Franklin Lakes, N.J.) Microtest 96-well plates in triplicate. Compounds may be prepared as 400 μM stock solutions in DMSO and serially diluted to the following concentrations with DMSO: 1600, 1200, 800, 400, 320, 240, 200, 160, 120, 80, 40, 20, 10 and 5 μM. 5 μL aliquots of each solution were added to the 96-well plate in triplicate, with each column representing a different concentration of the test compound. […] This 40-fold dilution gave the following final concentrations: 50, 40, 30, 20, 10, 8, 6, 4, 1, 0.5, 0.25 and 0.125 μM. The plates were covered and incubated at 30° C. (S. cerevisiae) or 37° C. (C. albicans) for 24 hours prior to analysis. […]
Series [6] in a line: Isothermal titration calorimetry with sterol-free POPC LUVs. In kind it is binding. Conditions: ITC, no sterol (POPC LUVs), 600 μM compound, 25° C. The method, then:
as §1
as §2, with “buffer. […]” for “buffer.”

The nature of series [7]: Isothermal titration calorimetry with POPC LUVs containing 10% cholesterol. The class given is binding. As to conditions: ITC. The method, then:
as §1
as §2, with “buffer. […]” for “buffer.”

Series [8] deals with S. cerevisiae. In words: Broth microdilution MIC assay, S. cerevisiae. As to conditions: Saccharomyces cerevisiae, 30° C., 24 hours, no visible growth. The class given is cell-based.
Experimental: Liquid cultures were incubated at 30° C. on a rotary shaker and solid cultures were maintained at 30° C. in an incubator.
as §6
The test system of series [9] is human red blood cells. Conditions: 2 h, pH 7.4.
Experimental: as §3, §4, §5
The subject of series [10] is C. albicans. In words: Mouse model of disseminated candidiasis. In kind it is in vivo. Conditions: neutropenic mice, single i.p. 16 mg/kg 2 hours post infection, kidneys at 24 hours post infection. The method, then: The antifungal efficacy of C2′epiAmB was tested in a mouse model of disseminated candidiasis. In this experiment neutropenic mice were infected with C. albicans via their tail veins, and then 2 hours post infection the mice were treated with a single intraperitoneal injection of 16 mg/kg AmB or C2′epiAmB. Then at 24 hours post infection the mice were sacrificed, and the fungal burden present in their kidneys was quantified.

Take `C[C@@H]1[C@H](O)[C@@H](C)/C=C/C=C/C=C/C=C/C=C/C=C/C=C/[C@H](O[C@@H]2O[C@H](C)[C@@H](O)[C@H](N)[C@@H]2O)C[C@@H]2O[C@](O)(C[C@@H](O)C[C@@H](O)[C@H](O)CC[C@@H](O)C[C@@H](O)CC(=O)O[C@H]1C)C[C@H](O)[C@H]2C(=O)O` [AmB, amphotericin B]: the “minimum hemolytic concentration (MHC)” value in series [1] came to 8.5 µM. Besides, the “minimum toxic concentration (MTC)” value in series [2] was determined as 2.4 µM. Further, the “Ergosterol binding (net exotherm vs sterol-free LUVs)” value in series [3] was “significant increase in net exotherm”. For the same molecule, the Lethality result in series [4] (4 mg/kg) is given as “died within seconds”.

With `C[C@@H]1[C@H](O)[C@@H](C)/C=C/C=C/C=C/C=C/C=C/C=C/C=C/[C@H](O[C@@H]2O[C@H](C)[C@@H](O)[C@H](N)[C@H]2O)C[C@@H]2O[C@](O)(C[C@@H](O)C[C@@H](O)[C@H](O)CC[C@@H](O)C[C@@H](O)CC(=O)O[C@H]1C)C[C@H](O)[C@H]2C(=O)O` [C2′epiAmB], the MIC in [5] and in series [8] was 2 µM (≈ 1.85 µg/mL) in each case. Also, the Total exotherm in series [6] is -6.70 ± 0.11 µcal; in series [7] (POPC LUVs with 10% cholesterol, 600 μM compound, 25° C.), -6.43 ± 2.80 µcal; in series [3] (POPC LUVs with 10% ergosterol, 600 μM compound, 25° C.), -15.24 ± 1.66 µcal. Further, the Cholesterol binding entry in series [7] (result in words) is “not found to bind to cholesterol”. For the same molecule, the “minimum toxic concentration (MTC)” value in [2] is “no evidence of toxicity up to the limits of solubility”. Also, the “minimum hemolytic concentration (MHC)” value in series [9] is more than 500 µM. Moreover, the “Reduction of fungal burden relative to AmB” value in series [10] stood at 0.5 log units. Also, in [10] (result in words), the “Reduction of fungal burden in kidneys compared with AmB” value is on record as “more effective than AmB”. Besides, the “Ergosterol binding (net exotherm vs sterol-free LUVs)” value in [3] is listed as “binds to ergosterol”. Also, in series [4] (up to 16 mg/kg), the Lethality entry is “no deaths observed”.
